Reference: patent publication US20090226527A1, “Particulate-stabilized injectable pharmacutical compositions of posaconazole” (priority 2004, published 2009)
≈ marks a conversion by molar mass, not a printed value.

What was measured:
aspergillosis = test: Orally administered Posaconazole: plasma Cmax/Cavg by quartile and response rate for aspergillosis; assay type: in vivo, patients
Description: (§1) In order to determine the target dosing for intravenous administration, it was necessary to determine a target range for mean Cavg and mean Cmax. Previous studies on orally administered Posaconazole are instructive in this regard.
(§2) At the same time, posaconazole has a long half-life and a large volume of distribution that results in sustained plasma levels and extensive penetration into body tissues with a likely accumulation in tissues. […] Thus, it can be inferred that posaconazole's long half-life and large volume of distribution results in sustained plasma and tissue levels allowing for safer and better tolerated pharmacokinetic behavior.

[1] = as above; assay type: in vivo, patients; details: human, plasma, po, 800 mg/day
Description: as §1, §2

[2] = test system: infectious agents (strains tested); test: organism not typed; assay type: cell-based

Compound: CCC([C@@H](C)O)n1ncn(-c2ccc(N3CCN(c4ccc(OC[C@@H]5CO[C@@](Cn6cncn6)(c6ccc(F)cc6F)C5)cc4)CC3)cc2)c1=O (stereo partly shown) [Posaconazole]
- Response (response rate for aspergillosis) (aspergillosis; Quartile 1): 24%
- Plasma Cavg, mean (aspergillosis; Quartile 1, n = 17): 134 ng/mL
- Response (response rate for aspergillosis) (aspergillosis; Quartile 2): 53%
- Plasma Cavg, mean (aspergillosis; Quartile 2, n = 17): 411 ng/mL
- Response (response rate for aspergillosis) (aspergillosis; Quartile 3): 53%
- Plasma Cavg, mean (aspergillosis; Quartile 3, n = 17): 719 ng/mL
- Response (response rate for aspergillosis) (aspergillosis; Quartile 4): 71%
- Plasma Cavg, mean (aspergillosis; Quartile 4, n = 16): 1250 ng/mL
- Cmax ([1]; Quartile 1, n = 17): 142 ng/mL
- Cmax ([1]; Quartile 2, n = 17): 467 ng/mL
- Cmax ([1]; Quartile 3, n = 17): 852 ng/mL
- Cmax ([1]; Quartile 4, n = 16): 1480 ng/mL
- MIC ([2]; Absidia spp, read-out: Geometric Mean MIC): 0.177 µg/mL (≈ 0.253 µM)
- MIC ([2]; Absidia spp, read-out: MIC[90]): 0.031 to 0.5 µg/mL (≈ 0.0442 to 0.713 µM)
- MIC ([2]; Alternaria spp, read-out: Geometric Mean MIC): 0.101 µg/mL (≈ 0.144 µM)
- MIC ([2]; Alternaria spp, read-out: MIC[90]): 0.25 µg/mL (≈ 0.357 µM)
- MIC ([2]; Apophysomyces spp, read-out: Geometric Mean MIC): 0.34 µg/mL (≈ 0.485 µM)
- MIC ([2]; Apophysomyces spp, read-out: MIC[90]): 0.031 to 4 µg/mL (≈ 0.0442 to 5.71 µM)
- MIC ([2]; Arthroderma terrestre, Trichophyton terrestre, read-out: Geometric Mean MIC): 0.125 µg/mL (≈ 0.178 µM)
- MIC ([2]; Arthroderma terrestre, Trichophyton terrestre, read-out: MIC[90]): 0.125 µg/mL (≈ 0.178 µM)
- MIC ([2]; Aspergillus flavus, read-out: Geometric Mean MIC): 0.079 µg/mL (≈ 0.113 µM)
- MIC ([2]; Aspergillus flavus, read-out: MIC[90]): 0.25 µg/mL (≈ 0.357 µM)
- MIC ([2]; Aspergillus fumigatus, read-out: Geometric Mean MIC): 0.118 µg/mL (≈ 0.168 µM)
- MIC ([2]; Aspergillus fumigatus, read-out: MIC[90]): 0.5 µg/mL (≈ 0.713 µM)
- MIC ([2]; Aspergillus nidulans, read-out: Geometric Mean MIC): 0.055 µg/mL (≈ 0.0785 µM)
- MIC ([2]; Aspergillus nidulans, read-out: MIC[90]): 0.25 µg/mL (≈ 0.357 µM)
- MIC ([2]; Aspergillus niger, read-out: Geometric Mean MIC): 0.195 µg/mL (≈ 0.278 µM)
- MIC ([2]; Aspergillus niger, read-out: MIC[90]): 0.5 µg/mL (≈ 0.713 µM)
- MIC ([2]; Aspergillus sydowii, read-out: Geometric Mean MIC): 0.177 µg/mL (≈ 0.253 µM)
- MIC ([2]; Aspergillus sydowii, read-out: MIC[90]): 0.031 to 0.5 µg/mL (≈ 0.0442 to 0.713 µM)
- MIC ([2]; Aspergillus terreus, read-out: Geometric Mean MIC): 0.052 µg/mL (≈ 0.0742 µM)
- MIC ([2]; Aspergillus terreus, read-out: MIC[90]): 0.25 µg/mL (≈ 0.357 µM)
- MIC ([2]; Aspergillus ustus, read-out: Geometric Mean MIC): 1.64 µg/mL (≈ 2.34 µM)
- MIC ([2]; Aspergillus ustus, read-out: MIC[90]): 0.25 to 8 µg/mL (≈ 0.357 to 11.4 µM)
- MIC ([2]; Bipolaris spp, read-out: Geometric Mean MIC): 0.354 µg/mL (≈ 0.505 µM)
- MIC ([2]; Bipolaris spp, read-out: MIC[90]): 0.125 to 1 µg/mL (≈ 0.178 to 1.43 µM)
- MIC ([2]; Bjerkandera adusta, read-out: Geometric Mean MIC): 0.25 µg/mL (≈ 0.357 µM)
- MIC ([2]; Bjerkandera adusta, read-out: MIC[90]): 0.25 µg/mL (≈ 0.357 µM)
- MIC ([2]; Blastomyces dermatitidis, read-out: Geometric Mean MIC): 0.053 µg/mL (≈ 0.0756 µM)
- MIC ([2]; Blastomyces dermatitidis, read-out: MIC[90]): 0.125 µg/mL (≈ 0.178 µM)
- MIC ([2]; Candida albicans, read-out: Geometric Mean MIC): 0.037 µg/mL (≈ 0.0528 µM)
- MIC ([2]; Candida albicans, read-out: MIC[90]): 0.25 µg/mL (≈ 0.357 µM)
- MIC ([2]; Candida dubliniensis, read-out: Geometric Mean MIC): 0.062 µg/mL (≈ 0.0885 µM)
- MIC ([2]; Candida dubliniensis, read-out: MIC[90]): 0.25 µg/mL (≈ 0.357 µM)
- MIC ([2]; Candida tropicalis, read-out: Geometric Mean MIC): 0.081 µg/mL (≈ 0.116 µM)
- MIC ([2]; Candida tropicalis, read-out: MIC[90]): 0.25 µg/mL (≈ 0.357 µM)
- MIC ([2]; Clavispora lusitaniae, Candida lusitaniae, read-out: Geometric Mean MIC): 0.048 µg/mL (≈ 0.0685 µM)
- MIC ([2]; Clavispora lusitaniae, Candida lusitaniae, read-out: MIC[90]): 0.125 µg/mL (≈ 0.178 µM)
- MIC ([2]; Coccidioides immitis, read-out: Geometric Mean MIC, Coccidioides immitis): 0.304 µg/mL (≈ 0.434 µM)
- MIC ([2]; Coccidioides immitis, read-out: MIC[90], Coccidioides immitis): 1 µg/mL (≈ 1.43 µM)
- MIC ([2]; Cryptococcus neoformans, read-out: Geometric Mean MIC): 0.119 µg/mL (≈ 0.17 µM)
- MIC ([2]; Cryptococcus neoformans, read-out: MIC[90]): 0.25 µg/mL (≈ 0.357 µM)
- MIC ([2]; Curvularia spp, read-out: Geometric Mean MIC): 0.072 µg/mL (≈ 0.103 µM)
- MIC ([2]; Curvularia spp, read-out: MIC[90]): 0.031 to 0.125 µg/mL (≈ 0.0442 to 0.178 µM)
- MIC ([2]; Debaryomyces hansenii, Candida famata, read-out: Geometric Mean MIC): 0.125 µg/mL (≈ 0.178 µM)
- MIC ([2]; Debaryomyces hansenii, Candida famata, read-out: MIC[90]): 0.5 µg/mL (≈ 0.713 µM)
- MIC ([2]; Diutina rugosa, Candida rugosa, read-out: Geometric Mean MIC): 0.039 µg/mL (≈ 0.0557 µM)
- MIC ([2]; Diutina rugosa, Candida rugosa, read-out: MIC[90]): 0.5 µg/mL (≈ 0.713 µM)
- MIC ([2]; Dujonia zeylanoides, Candida zeylanoides, read-out: Geometric Mean MIC): 0.031 µg/mL (≈ 0.0442 µM)
- MIC ([2]; Dujonia zeylanoides, Candida zeylanoides, read-out: MIC[90]): 0.008 to 0.25 µg/mL (≈ 0.0114 to 0.357 µM)
- MIC ([2]; Epidermophyton floccosum, read-out: Geometric Mean MIC): 0.029 µg/mL (≈ 0.0414 µM)
- MIC ([2]; Epidermophyton floccosum, read-out: MIC[90]): 0.125 µg/mL (≈ 0.178 µM)
- MIC ([2]; Exophiala dermatidis, read-out: Geometric Mean MIC): 0.125 µg/mL (≈ 0.178 µM)
- MIC ([2]; Exophiala dermatidis, read-out: MIC[90]): 0.125 µg/mL (≈ 0.178 µM)
- MIC ([2]; Exophiala dermatitidis, Wangiella dermatitidis, read-out: Geometric Mean MIC): 0.088 µg/mL (≈ 0.126 µM)
- MIC ([2]; Exophiala dermatitidis, Wangiella dermatitidis, read-out: MIC[90]): 0.063 to 0.125 µg/mL (≈ 0.0899 to 0.178 µM)
- MIC ([2]; Exophiala jeanselmei, read-out: Geometric Mean MIC): 0.287 µg/mL (≈ 0.41 µM)
- MIC ([2]; Exophiala jeanselmei, read-out: MIC[90]): 0.5 µg/mL (≈ 0.713 µM)
- MIC ([2]; Exophiala moniliae, read-out: Geometric Mean MIC): 0.016 µg/mL (≈ 0.0228 µM)
- MIC ([2]; Exophiala moniliae, read-out: MIC[90]): 0.016 µg/mL (≈ 0.0228 µM)
- MIC ([2]; Fonsecae pedrosoi, read-out: Geometric Mean MIC): 0.25 µg/mL (≈ 0.357 µM)
- MIC ([2]; Fonsecae pedrosoi, read-out: MIC[90]): 0.25 µg/mL (≈ 0.357 µM)
- MIC ([2]; Fusarium spp, read-out: Geometric Mean MIC): 2.32 µg/mL (≈ 3.31 µM)
- MIC ([2]; Fusarium spp, read-out: MIC[90]): 16 µg/mL (≈ 22.8 µM)
- MIC ([2]; Hansenula anomala, Pichia anomala, read-out: Geometric Mean MIC): 0.689 µg/mL (≈ 0.983 µM)
- MIC ([2]; Hansenula anomala, Pichia anomala, read-out: MIC[90]): 1 µg/mL (≈ 1.43 µM)
